From US10543212B2, “Substituted amines for treating cardiac diseases” (Cardurion Pharmaceuticals, LLC, priority 2017, dated 2020)

These compounds were tested against T1, Full-length, GST-tagged, human CaMKIIδ (Homo sapiens, UniProt Q13557) (assay: CaMKIIδ binding assay (TR-FRET with BODIPY-labeled probe ligand)). Settings: CaMKIIδ binding assay; activity class per Table 2.
T1 construct: Full-Length, Glutathione-S-Transferase(GST)-Tagged, Human CaMKIIδ was purchased from Carna Biosciences; purchased Carna Biosciences 02-111
Procedure, shortened: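 Compounds were tested as 4-fold, eight-point series for 1 hr at room temperature, and IC50 was obtained by logistic fitting against a 3 μM parent-compound control. Signal came from displacement of a 300 nM BODIPY ligand from 0.5 nM GST-CaMKIIδ, detected via Tb-anti-GST in calmodulin/Ca2+ (pH 7.6).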

T1 sequence (Q13557 1-478 isoform Q13557-12): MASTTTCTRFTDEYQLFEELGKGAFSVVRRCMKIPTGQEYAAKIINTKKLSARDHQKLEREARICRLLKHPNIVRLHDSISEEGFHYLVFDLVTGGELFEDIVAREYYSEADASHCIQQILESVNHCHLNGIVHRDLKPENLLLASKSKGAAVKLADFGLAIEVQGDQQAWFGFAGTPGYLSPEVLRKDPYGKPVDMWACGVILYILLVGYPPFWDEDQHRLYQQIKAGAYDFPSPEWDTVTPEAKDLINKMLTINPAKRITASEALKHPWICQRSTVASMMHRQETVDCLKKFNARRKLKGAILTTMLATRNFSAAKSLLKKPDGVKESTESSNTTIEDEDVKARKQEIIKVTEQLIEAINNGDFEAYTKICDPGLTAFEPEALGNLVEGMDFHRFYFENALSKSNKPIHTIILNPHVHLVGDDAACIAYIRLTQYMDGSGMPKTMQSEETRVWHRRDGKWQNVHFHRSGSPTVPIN

First: C[C@@H](CN1CCCC1=O)Oc1cc(-c2cnc(Nc3cn([C@H]4CC[C@H](N5CCOCC5)CC4)nc3C(F)(F)F)nc2)ccc1C#N [Example 900, 4-(2-((1-(trans-4-morpholinocyclohexyl)-3-(trifluoromethyl)-1H-pyrazol-4-yl)amino)pyrimidin-5-yl)-2-(((S)-1-(2-oxopyrrolidin-1-yl)propan-2-yl)oxy)benzonitrile]
Second: C[C@@H](Cn1cnnn1)Oc1cc(-c2cnc(Nc3cn(CC4(O)CCN(C5CCOCC5)CC4)nc3C(F)(F)F)nc2)ccc1Cl [Example 905, (S)-4-((4-((5-(3-((1-(1H-tetrazol-1-yl)propan-2-yl)oxy)-4-chlorophenyl)pyrimidin-2-yl)amino)-3-(trifluoromethyl)-1H-pyrazol-1-yl)methyl)-1-(tetrahydro-2H-pyran-4-yl)piperidin-4-ol]
The IC50 of the first is higher: 0.01 to 0.1 µM for the first, < 0.01 µM for the second. The second is the more potent here.

First: COc1ccc(-n2cc(Nc3ncc(-c4ccc(Cl)c(O[C@@H](C)Cn5cnnn5)c4)cn3)c(OCC(F)(F)F)n2)cn1 [Example 901, (S)-5-(3-((1-(1H-tetrazol-1-yl)propan-2-yl)oxy)-4-chlorophenyl)-N-(1-(6-methoxypyridin-3-yl)-3-(2,2,2-trifluoroethoxy)-1H-pyrazol-4-yl)pyrimidin-2-amine]
Second: C[C@@H](Cn1cnnn1)Oc1cc(-c2cnc(Nc3cn(-c4ccc(=O)[nH]c4)nc3OCC(F)(F)F)nc2)ccc1Cl [Example 902, (S)-5-(4-((5-(3-((1-(1H-tetrazol-1-yl)propan-2-yl)oxy)-4-chlorophenyl)pyrimidin-2-yl)amino)-3-(2,2,2-trifluoroethoxy)-1H-pyrazol-1-yl)pyridin-2(1H)-one]
The IC50 of the first is higher: 0.01 to 0.1 µM for the first, < 0.01 µM for the second. The second is the more potent here.

C[C@@H](Cn1cnnn1)Oc1cc(-c2cnc(Nc3cn(CC4(O)CCC(=O)CC4)nc3OCC(F)(F)F)nc2)ccc1Cl [Example 903, (S)-4-((4-((5-(3-((1-(1H-tetrazol-1-yl)propan-2-yl)oxy)-4-chlorophenyl)pyrimidin-2-yl)amino)-3-(2,2,2-trifluoroethoxy)-1H-pyrazol-1-yl)methyl)-4-hydroxycyclohexan-1-one] and C[C@@H](Cn1cnnn1)Oc1cc(-c2cnc(Nc3cn(C[C@]4(O)CC[C@H](O)CC4)nc3OCC(F)(F)F)nc2)ccc1Cl [Example 906, trans-1-((4-((5-(3-(((S)-1-(1H-tetrazol-1-yl)propan-2-yl)oxy)-4-chlorophenyl)pyrimidin-2-yl)amino)-3-(2,2,2-trifluoroethoxy)-1H-pyrazol-1-yl)methyl)cyclohexane-1,4-diol] cannot be ordered by IC50: < 0.01 µM for the first, < 0.01 µM for the second.

CC(Cn1cnnn1)Oc1cc(-c2cnc(Nc3cn(CC4(O)CCC(O)CC4)nc3OCC(F)(F)F)nc2)ccc1Cl [Example 907, cis-1-((4-((5-(3-(((S)-1-(1H-tetrazol-1-yl)propan-2-yl)oxy)-4-chlorophenyl)pyrimidin-2-yl)amino)-3-(2,2,2-trifluoroethoxy)-1H-pyrazol-1-yl)methyl)cyclohexane-1,4-diol] and C[C@@H](Cn1cnnn1)Oc1cc(-c2cnc(Nc3cn(CC4(O)CCN(C)CC4)nc3OCC(F)(F)F)nc2)ccc1Cl [Example 910, (S)-4-((4-((5-(3-((1-(1H-tetrazol-1-yl)propan-2-yl)oxy)-4-chlorophenyl)pyrimidin-2-yl)amino)-3-(2,2,2-trifluoroethoxy)-1H-pyrazol-1-yl)methyl)-1-methylpiperidin-4-ol] cannot be ordered by IC50: < 0.01 µM for the first, < 0.01 µM for the second.

C[C@@H](Cn1cnnn1)Oc1cc(-c2cnc(Nc3cn(CC4(O)CCN(C5CCC5)CC4)nc3OCC(F)(F)F)nc2)ccc1Cl [Example 908, (S)-4-((4-((5-(3-((1-(1H-tetrazol-1-yl)propan-2-yl)oxy)-4-chlorophenyl)pyrimidin-2-yl)amino)-3-(2,2,2-trifluoroethoxy)-1H-pyrazol-1-yl)methyl)-1-cyclobutylpiperidin-4-ol] and C[C@@H](Cn1cnnn1)Oc1cc(-c2cnc(Nc3cn(CC4(O)CCN(C5CCOCC5)CC4)nc3OCC(F)(F)F)nc2)ccc1Cl [Example 909, (S)-4-((4-((5-(3-((1-(1H-tetrazol-1-yl)propan-2-yl)oxy)-4-chlorophenyl)pyrimidin-2-yl)amino)-3-(2,2,2-trifluoroethoxy)-1H-pyrazol-1-yl)methyl)-1-(tetrahydro-2H-pyran-4-yl)piperidin-4-ol] cannot be ordered by IC50: < 0.01 µM for the first, < 0.01 µM for the second.

CC(Cn1cnnn1)Oc1cc(-c2cnc(Nc3cn(CC4(O)CCC(N5CCOCC5)CC4)nc3OCC(F)(F)F)nc2)ccc1Cl [Example 911, trans-1-((4-((5-(3-(((S)-1-(1H-tetrazol-1-yl)propan-2-yl)oxy)-4-chlorophenyl)pyrimidin-2-yl)amino)-3-(2,2,2-trifluoroethoxy)-1H-pyrazol-1-yl)methyl)-4-morpholinocyclohexan-1-ol] and C[C@@H](Cn1cnnn1)Oc1cc(-c2cnc(Nc3cn(CC(O)CN4CCOCC4)nc3OCC(F)(F)F)nc2)ccc1Cl (stereo partly drawn) [Example 913, 1-(4-((5-(3-(((S)-1-(1H-tetrazol-1-yl)propan-2-yl)oxy)-4-chlorophenyl)pyrimidin-2-yl)amino)-3-(2,2,2-trifluoroethoxy)-1H-pyrazol-1-yl)-3-morpholinopropan-2-ol] cannot be ordered by IC50: < 0.01 µM for the first, < 0.01 µM for the second.

CC(Cn1cnnn1)Oc1cc(-c2cnc(Nc3cn(CC4(O)CCC(N5CCOCC5)CC4)nc3OCC(F)(F)F)nc2)ccc1Cl [Example 912, cis-1-((4-((5-(3-(((S)-1-(1H-tetrazol-1-yl)propan-2-yl)oxy)-4-chlorophenyl)pyrimidin-2-yl)amino)-3-(2,2,2-trifluoroethoxy)-1H-pyrazol-1-yl)methyl)-4-morpholinocyclohexan-1-ol] and C[C@@H](Cn1cnnn1)Oc1cc(-c2cnc(Nc3cn(C4(CO)CCC4)nc3OCC(F)(F)F)nc2)ccc1Cl [Example 914, (S)-(1-(4-((5-(3-((1-(1H-tetrazol-1-yl)propan-2-yl)oxy)-4-chlorophenyl)pyrimidin-2-yl)amino)-3-(2,2,2-trifluoroethoxy)-1H-pyrazol-1-yl)cyclobutyl)methanol] cannot be ordered by IC50: < 0.01 µM for the first, < 0.01 µM for the second.

First: CCOC(=O)C1(n2cc(Nc3ncc(-c4ccc(Cl)c(O[C@@H](C)Cn5cnnn5)c4)cn3)c(OCC(F)(F)F)n2)CCC1 [Example 915, ethyl (S)-1-(4-((5-(3-((1-(1H-tetrazol-1-yl)propan-2-yl)oxy)-4-chlorophenyl)pyrimidin-2-yl)amino)-3-(2,2,2-trifluoroethoxy)-1H-pyrazol-1-yl)cyclobutane-1-carboxylate]
Second: C[C@@H](Cn1cnnn1)Oc1cc(-c2cnc(Nc3cn(C4(C(=O)O)CCC4)nc3OCC(F)(F)F)nc2)ccc1Cl [Example 916, (S)-1-(4-((5-(3-((1-(1H-tetrazol-1-yl)propan-2-yl)oxy)-4-chlorophenyl)pyrimidin-2-yl)amino)-3-(2,2,2-trifluoroethoxy)-1H-pyrazol-1-yl)cyclobutane-1-carboxylic acid]
The IC50 of the first is lower: < 0.01 µM for the first, 0.01 to 0.1 µM for the second.

C[C@@H](Cn1cnnn1)Oc1cc(-c2cnc(Nc3cn(C4(C(N)=O)CCC4)nc3OCC(F)(F)F)nc2)ccc1Cl [Example 917, (S)-1-(4-((5-(3-((1-(1H-tetrazol-1-yl)propan-2-yl)oxy)-4-chlorophenyl)pyrimidin-2-yl)amino)-3-(2,2,2-trifluoroethoxy)-1H-pyrazol-1-yl)cyclobutane-1-carboxamide] was tested, and the IC50 was < 0.01 µM.
